{
  "source": "patent US20220313671A1",
  "about": "(Chiesi Farmaceutici S.p.A., priority 2011, published 2022)",
  "origin": "cited, not measured here",
  "data": [
    {"smiles": "CCCC(=O)OCOC(=O)C1=C(C)NC(C)=C(C(=O)OC)C1c1cccc(Cl)c1Cl", "note": "(stereo not drawn) [clevidipine]", "values": [
      {"measurement": "full offset of activity", "setting": "rapid offset of activity", "value": "5 to 15", "unit": "min"},
      {"measurement": "onset of activity", "setting": "rapid onset of activity", "value": "2 to 4", "unit": "min"},
      {"measurement": "return of blood pressure to pre-treatment levels", "setting": "time after discontinuation of clevidipine", "value": "5 to 15", "unit": "min"}
    ]}
  ]
}
